Data: ChEMBL document CHEMBL4825686, “HTS-based discovery and optimization of novel positive allosteric modulators of the α7 nicotinic acetylcholine receptor” (Eur J Med Chem, 2021)
Values after ≈ are worked out from the molar mass of the structure shown. Active and inactive are the calls of the source. The rule behind the calls is not given here.

What was measured:
[1] = Ratio of drug level in Wistar rat brain to plasma at 10 mg/kg, ip measured after 35 mins by HPLC-MS/MS analysis; assay type: ADME, organism-based; conditions: read-out: BPR
[2] = Ratio of drug level in Wistar rat brain to plasma at 1 mg/kg, ip measured after 35 mins by HPLC-MS/MS analysis; assay type: ADME, organism-based; conditions: read-out: BPR
[3] = Apparent permeability across apical to basolateral side in vinblastine-treated human Caco-2 cells expressing P-glycoprotein at 10 uM incubated for 120 mins by HPLC analysis; assay type: ADME
[4] = target: T1, GABA-A receptor; alpha-5/beta-3/gamma-2 (Homo sapiens) (UniProt P18507+P28472+P31644); test: Activation of human alpha5beta3gamma2 GABAA receptor expressed in HEK293 cells assessed as enhancement of GABA induced channel current response at 1 to 10 uM measured after 7 to 10 mins at -80 mV holding potential by whole-cell patch clamp assay; assay type: cell-based; conditions: dose 1-10 µM, time 7-10 min
[5] = target: T1, GABA-A receptor; alpha-5/beta-3/gamma-2 (Homo sapiens); test: Inhibition of human alpha5beta3gamma2 GABAA receptor expressed in HEK293 cells assessed as inhibition of GABA induced channel current response at 1 to 10 uM measured after 7 to 10 mins at -80 mV holding potential by whole-cell patch clamp assay; assay type: cell-based; conditions: dose 1-10 µM, time 7-10 min
[6] = target: T2, GABA-A receptor; alpha-1/beta-3/gamma-2 (Homo sapiens) (UniProt P14867+P18507+P28472); test: Activation of human alpha1beta3gamma2 GABAA receptor expressed in HEK293 cells assessed as enhancement of GABA induced channel current response at 1 to 10 uM measured after 7 to 10 mins at -80 mV holding potential by whole-cell patch clamp assay; assay type: cell-based; conditions: dose 1-10 µM, time 7-10 min
[7] = target: T2, GABA-A receptor; alpha-1/beta-3/gamma-2 (Homo sapiens); test: Inhibition of human alpha1beta3gamma2 GABAA receptor expressed in HEK293 cells assessed as inhibition of GABA induced channel current response at 1 to 10 uM measured after 7 to 10 mins at -80 mV holding potential by whole-cell patch clamp assay; assay type: cell-based; conditions: dose 1-10 µM, time 7-10 min
Mus musculus = test: Cognitive enhancing effect in scopolamine-induced amnesia NMRI mouse model assessed as increase in recognition index at 1 to 10 mg/kg, ip administered 30 mins prior to scopolamine injection by Y-maze test; assay type: functional, organism-based; conditions: dose 1-10 mg/kg
[8] = Kinetic solubility of compound; assay type: physicochemical; conditions: read-out: Kinetic_solubility
[9] = Metabolic stability in NMRI mouse liver microsomes assessed as intrinsic clearance at 1 uM measured per mg protein upto 40 mins; assay type: ADME, Microsome; conditions: read-out: CLH
[10] = target: T3, Neuronal acetylcholine receptor subunit alpha-7 (Homo sapiens, UniProt P36544); test: Positive allosteric modulation of human alpha7 nAChR expressed in HEK293 cells assessed as inhibition of choline-evoked current desensitization measured after 6 to 10 mins at -80 mV holding potential by automated whole cell patch clamp analysis; assay type: cell-based; conditions: filed as positive allosteric modulator, time 6-10 min
T3 sequence (P36544 whole entry): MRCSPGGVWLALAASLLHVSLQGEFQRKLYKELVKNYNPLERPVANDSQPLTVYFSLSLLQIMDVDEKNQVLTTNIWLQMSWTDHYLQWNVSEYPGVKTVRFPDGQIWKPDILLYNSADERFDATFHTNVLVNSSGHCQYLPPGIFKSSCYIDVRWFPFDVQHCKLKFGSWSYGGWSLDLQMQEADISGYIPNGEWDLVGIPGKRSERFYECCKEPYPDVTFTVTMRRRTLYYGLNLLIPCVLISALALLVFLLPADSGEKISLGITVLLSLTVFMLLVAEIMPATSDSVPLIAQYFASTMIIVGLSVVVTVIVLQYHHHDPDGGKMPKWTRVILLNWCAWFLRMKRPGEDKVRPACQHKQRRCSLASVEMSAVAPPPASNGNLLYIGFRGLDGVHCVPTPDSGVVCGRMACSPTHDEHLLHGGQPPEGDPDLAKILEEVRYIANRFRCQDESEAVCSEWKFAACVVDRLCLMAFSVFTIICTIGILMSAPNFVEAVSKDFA

[11] = target: 5-hydroxytryptamine receptor 2B (Homo sapiens) (UniProt P41595); test: Binding affinity to human recombinant 5-HT2B receptor assessed as displacement of radioligand at 10 uM by displacement binding assay
Sequence of 5-hydroxytryptamine receptor 2B (Homo sapiens) (P41595 whole entry): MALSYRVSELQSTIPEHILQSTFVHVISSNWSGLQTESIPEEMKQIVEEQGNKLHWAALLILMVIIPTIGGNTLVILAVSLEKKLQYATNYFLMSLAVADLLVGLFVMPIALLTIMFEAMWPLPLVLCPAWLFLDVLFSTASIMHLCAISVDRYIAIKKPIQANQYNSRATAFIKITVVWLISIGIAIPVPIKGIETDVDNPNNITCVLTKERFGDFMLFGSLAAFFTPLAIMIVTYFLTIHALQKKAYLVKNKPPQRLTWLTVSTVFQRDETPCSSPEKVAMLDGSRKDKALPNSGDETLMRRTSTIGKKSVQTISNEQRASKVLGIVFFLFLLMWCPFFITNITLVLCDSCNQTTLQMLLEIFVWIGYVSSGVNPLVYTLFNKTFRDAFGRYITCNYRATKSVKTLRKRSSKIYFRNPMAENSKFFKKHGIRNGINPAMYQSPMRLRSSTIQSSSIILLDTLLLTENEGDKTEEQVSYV

[12] = target: Sigma non-opioid intracellular receptor 1 (Homo sapiens) (UniProt Q99720); test: Binding affinity to human recombinant sigma-1 receptor assessed as displacement of radioligand at 10 uM by displacement binding assay
Sequence of Sigma non-opioid intracellular receptor 1 (Homo sapiens) (Q99720 whole entry): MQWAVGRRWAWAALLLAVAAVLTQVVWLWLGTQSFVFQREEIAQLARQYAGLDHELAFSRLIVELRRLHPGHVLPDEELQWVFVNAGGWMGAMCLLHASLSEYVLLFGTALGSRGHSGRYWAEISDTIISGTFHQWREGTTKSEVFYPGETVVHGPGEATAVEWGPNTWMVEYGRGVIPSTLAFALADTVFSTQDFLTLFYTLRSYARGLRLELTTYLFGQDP

[13] = target: Glutamate NMDA receptor (Rattus norvegicus) (UniProt P35439+Q00959+Q00960+Q00961+Q62645+Q8VHN2+Q9R1M7); test: Displacement of [3H]MDL105519 from NMDA receptor in Wistar rat cerebral cortex at 10 uM by displacement binding assay; assay type: tissue-based
[14] = target: T4, GABA-A receptor; anion channel (Rattus norvegicus) (UniProt O09028+P15431+P18506+P18508+P19969+P20236+P23574+P23576+P28471+P28473+P30191+P62813+P63079+P63138+Q91ZM7+Q9ES14); test: Displacement of [3H]flunitrazepam from GABAA receptor in Wistar rat brain without cerebellum at 10 uM by displacement binding assay; assay type: tissue-based
[15] = target: T4, GABA-A receptor; anion channel (Rattus norvegicus); test: Displacement of [3H]muscimol from GABAA receptor in Wistar rat brain without cerebellum at 10 uM by displacement binding assay; assay type: tissue-based
[16] = target: Voltage-gated inwardly rectifying potassium channel KCNH2 (Homo sapiens, UniProt Q12809); test: Inhibition of human ERG channel expressed in CHO cells measured after 7 to 10 mins at -80 mV holding potential by whole cell patch clamp assay; assay type: cell-based
Sequence of Voltage-gated inwardly rectifying potassium channel KCNH2 (Q12809 whole entry): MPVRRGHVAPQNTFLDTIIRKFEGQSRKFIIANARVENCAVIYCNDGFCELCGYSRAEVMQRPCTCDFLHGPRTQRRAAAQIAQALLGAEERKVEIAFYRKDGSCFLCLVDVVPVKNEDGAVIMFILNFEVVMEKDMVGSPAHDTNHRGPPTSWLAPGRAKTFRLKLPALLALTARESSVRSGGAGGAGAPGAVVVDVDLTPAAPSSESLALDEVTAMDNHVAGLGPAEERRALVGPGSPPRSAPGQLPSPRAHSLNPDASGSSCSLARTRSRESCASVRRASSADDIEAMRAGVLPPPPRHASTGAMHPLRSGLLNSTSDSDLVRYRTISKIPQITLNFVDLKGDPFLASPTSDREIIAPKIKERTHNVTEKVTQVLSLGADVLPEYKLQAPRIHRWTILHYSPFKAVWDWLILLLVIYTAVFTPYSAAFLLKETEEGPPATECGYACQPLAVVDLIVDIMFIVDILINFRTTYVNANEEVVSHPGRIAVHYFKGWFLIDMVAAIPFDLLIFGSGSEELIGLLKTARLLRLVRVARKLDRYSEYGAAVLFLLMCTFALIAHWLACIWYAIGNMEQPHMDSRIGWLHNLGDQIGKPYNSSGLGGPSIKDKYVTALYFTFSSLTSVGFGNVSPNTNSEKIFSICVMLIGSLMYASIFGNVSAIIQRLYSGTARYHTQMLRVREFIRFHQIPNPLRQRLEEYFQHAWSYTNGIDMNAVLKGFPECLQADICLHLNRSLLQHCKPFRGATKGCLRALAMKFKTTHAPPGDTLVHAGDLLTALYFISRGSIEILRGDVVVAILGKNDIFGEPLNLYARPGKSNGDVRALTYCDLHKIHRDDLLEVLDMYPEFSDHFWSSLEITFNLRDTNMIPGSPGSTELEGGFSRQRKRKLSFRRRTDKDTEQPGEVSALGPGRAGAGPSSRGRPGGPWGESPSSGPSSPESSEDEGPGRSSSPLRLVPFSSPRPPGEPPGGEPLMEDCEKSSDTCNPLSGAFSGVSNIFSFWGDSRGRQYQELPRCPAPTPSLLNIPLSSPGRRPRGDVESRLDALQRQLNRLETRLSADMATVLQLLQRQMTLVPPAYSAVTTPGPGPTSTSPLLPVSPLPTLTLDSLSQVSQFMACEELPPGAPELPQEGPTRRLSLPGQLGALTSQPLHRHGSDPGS

Rattus norvegicus = test: Cognitive enhancing effect in Hannover Wistar rat assessed as increase in novel object recognition index at 1 to 10 mg/kg, po administered 30 mins prior to recognition trail by novel object recognition test; assay type: functional, organism-based; conditions: dose 1-10 mg/kg
[17] = Drug uptake in NMRI mouse brain at 0.1 mg/kg, ip measured after 1 hr by HPLC-MS/MS analysis; assay type: ADME, organism-based; conditions: read-out: Ct
[18] = Drug uptake in NMRI mouse brain at 1 mg/kg, ip measured after 1 hr by HPLC-MS/MS analysis; assay type: ADME, organism-based; conditions: read-out: Ct
[19] = Drug uptake in NMRI mouse brain at 10 mg/kg, ip measured after 1 hr by HPLC-MS/MS analysis; assay type: ADME, organism-based; conditions: read-out: Ct
[20] = Ratio of drug level in NMRI mouse brain to plasma at 10 mg/kg, ip measured after 1 hr by HPLC-MS/MS analysis; assay type: ADME, organism-based; conditions: read-out: BPR
[21] = Drug uptake in Wistar rat brain at 1 mg/kg, ip measured after 35 mins by HPLC-MS/MS analysis; assay type: ADME, organism-based; conditions: read-out: Ct
[22] = Drug uptake in Wistar rat brain at 3 mg/kg, ip measured after 35 mins by HPLC-MS/MS analysis; assay type: ADME, organism-based; conditions: read-out: Ct
[23] = Drug uptake in Wistar rat brain at 10 mg/kg, ip measured after 35 mins by HPLC-MS/MS analysis; assay type: ADME, organism-based; conditions: read-out: Ct
[24] = Plasma concentration in Wistar rat at 1 mg/kg, ip measured after 35 mins by HPLC-MS/MS analysis; assay type: ADME, organism-based
[25] = Plasma concentration in Wistar rat at 10 mg/kg, ip measured after 35 mins by HPLC-MS/MS analysis; assay type: ADME, organism-based
[26] = Mutagenicity in Salmonella typhimurium TA1535 in presence of rat liver S9 fraction by AMES test; assay type: toxicity, subcellular; conditions: salmonella enterica subsp. enterica serovar typhimurium
[27] = Mutagenicity in Salmonella typhimurium TA98 in presence of rat liver S9 fraction by AMES test; assay type: toxicity, subcellular; conditions: salmonella enterica subsp. enterica serovar typhimurium
[28] = Mutagenicity in Salmonella typhimurium TA100 in absence of rat liver S9 fraction by AMES test; assay type: toxicity; conditions: salmonella enterica subsp. enterica serovar typhimurium
[29] = Mutagenicity in Salmonella typhimurium TA1537 in presence of rat liver S9 fraction by AMES test; assay type: toxicity, subcellular; conditions: salmonella enterica subsp. enterica serovar typhimurium
[30] = Mutagenicity in Salmonella typhimurium TA1537 in absence of rat liver S9 fraction by AMES test; assay type: toxicity; conditions: salmonella enterica subsp. enterica serovar typhimurium
[31] = Lipophilicity, logP of the compound; assay type: physicochemical; conditions: octanol/water
[32] = target: T3, Neuronal acetylcholine receptor subunit alpha-7; test: Positive allosteric modulation of human alpha7 nAChR expressed in HEK293 cells assessed as increase in peak current amplitude measured after 6 to 10 mins at -80 mV holding potential by automated whole cell patch clamp analysis; assay type: cell-based

Cc1ccc(CN2CCN(C(=O)C(=O)Nc3ccc4c(ccn4C)c3)CC2)cc1
Kp at 35 min [1]: 4.01
Kp at 35 min [2]: 4.93
Papp A→B at 2 h, 10 µM [3]: 30.7 ×10⁻⁶ cm/s
Activity [4]: < 7%
inhibition [5]: < 7%
Activity [6]: < 7%
inhibition [7]: < 7%
Activity (Mus musculus): Active
solubility kinetic [8]: 41.6 µM (≈ 16.2 µg/mL)
microsomal CLint at 1 µM [9]: 55 µL/min/mg
Activity [10]: Active
inhibition [11]: 98%
inhibition [12]: 55%
inhibition [13]: < 15%
inhibition [14]: < 15%
inhibition [15]: < 15%
IC50 [16]: 7.5 µM
Activity (Rattus norvegicus): inactive
concentration at 1 h [17]: 3.1 nM
concentration at 1 h [18]: 39 nM
concentration at 1 h [19]: 233 nM
Kp at 1 h [20]: 1.67
concentration at 35 min [21]: 135 nM
concentration at 35 min [22]: 207 nM
concentration at 35 min [23]: 657 nM
concentration at 35 min [24]: 28 nM
concentration at 35 min [25]: 196 nM
Activity [26]: Non-Toxic
Activity [27]: Non-Toxic
Activity [28]: Non-Toxic
Activity [29]: Non-Toxic
Activity [30]: Non-Toxic
logP [31]: 3.7
EC50 [32]: 0.71 µM
